The values that follow come from article PMC7956620 (Molecules, 2021).

The test system of one series is mice. Details: method as in PMID 31052510. The following applies: mice ref 32; cited from earlier work.
The target in series [1] is T1, 5-HT3A receptor N138A mutant (Homo sapiens, UniProt P46098, N133A).
T1 construct: host or cells: Xenopus laevis oocytes injected with in vitro transcribed mRNA
T1 sequence (P46098 24-478 N133A): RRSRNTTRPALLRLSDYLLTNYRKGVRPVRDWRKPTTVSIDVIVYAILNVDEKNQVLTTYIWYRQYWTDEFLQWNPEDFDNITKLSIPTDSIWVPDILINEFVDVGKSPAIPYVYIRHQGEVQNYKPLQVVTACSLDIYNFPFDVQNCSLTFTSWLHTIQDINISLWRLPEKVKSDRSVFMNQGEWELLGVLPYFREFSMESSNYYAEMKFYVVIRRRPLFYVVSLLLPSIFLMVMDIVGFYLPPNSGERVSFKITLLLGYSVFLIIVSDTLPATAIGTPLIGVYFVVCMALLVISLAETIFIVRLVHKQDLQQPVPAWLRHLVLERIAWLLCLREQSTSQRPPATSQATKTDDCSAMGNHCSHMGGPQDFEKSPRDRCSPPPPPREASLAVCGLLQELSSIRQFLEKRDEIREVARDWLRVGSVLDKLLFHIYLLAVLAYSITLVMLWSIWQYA
Briefly: two-electrode voltage clamp, N138A mutant receptor in Xenopus oocytes. The class given is cell-based. The following applies: 100 µM chanoclavine, read-out: Inhibition Percentage (%). The protocol: (§1) The site-directed mutation of one or two amino acids was performed using sense and antisense primers and Pfu polymerase (QuickChange Site-Directed Mutagenesis Kit; Agilent, Santa Clara, CA, USA) and amplified by polymerase chain reaction (PCR) to increase the target domain. After removing the existing methylated cDNA using Dpn Ⅰ, the PCR products were transformed into Escherichia coli strain DH5α. The cDNA of the 5-HT3A receptor was linearized by Xho Ⅰ at the end of the multi-cloning site, followed by transcription using T7 polymerase and a transcription kit (mMESSAGE mMACHINE T7 Transcription Kit; Thermo Fisher Scientific, Waltham, MA, USA). […]
(§2) To isolate oocytes, female Xenopus laevis were put into a container filled with ice and left for about one hour. […] When the Xenopus oocytes were ready for injection, 50 ng of mRNA was injected with a nanoliter injector (Drummond Scientific, Vernon Hills, IL, USA). […]
(§3) The oocytes in which mRNA was expressed during the incubation period allowed for the estimation of channel or receptor properties for observing drug and ligand potential interactions using a two-electrode voltage clamp (OC-725C; Warner Instruments, Hamden, CT, USA) and Digidata (1322A; Molecular Devices, Sunnyvale, CA, USA). […] The voltage and current electrodes were filled with 3 M KCl (0.3–0.7 MΩ) and analyzed at a −80 mV holding potential. […]

The target in series [2] is T2, 5-HT3A receptor S136A mutant (Homo sapiens, UniProt P46098, S131A).
T2 construct: host or cells: Xenopus laevis oocytes injected with in vitro transcribed mRNA
T2 sequence (P46098 24-478 S131A): T1 sequence (P46098 24-478 N133A) with S108A, A110N
Kind of series: two-electrode voltage clamp, S136A mutant receptor in Xenopus oocytes. The format is cell-based. Particulars: 100 µM chanoclavine, read-out: Inhibition Percentage (%). The protocol:
as §1, §2, §3

The target in series [3] is T3, 5-HT3A receptor R92A mutant (Homo sapiens, UniProt P46098, R87A).
T3 construct: host or cells: Xenopus laevis oocytes injected with in vitro transcribed mRNA
T3 sequence (P46098 24-478 R87A): T1 sequence (P46098 24-478 N133A) with R64A, A110N
Briefly: two-electrode voltage clamp, R92A mutant receptor in Xenopus oocytes. Particulars: 100 µM chanoclavine, read-out: Inhibition Percentage (%). The format is cell-based. The method, then: as §1, §2, §3

Numbering of substitutions follows the chain as printed.

Regarding `CN[C@@H]1Cc2c[nH]c3cccc(c23)[C@H]1/C=C(\C)CO` [chanoclavine], the “toxicity (gross hematology, blood chemistry, pathology, histology)” value in the series on mice was “low toxicity”. The inhibition at 100 µM in series [1] is -1.64 ± 6.2%; in series [2] it was 68.4 ± 6.1%; in series [3], 95.45 ± 0.3%.
